biological target: T1, tCD14-His6 (truncated CD14) (Homo sapiens, UniProt P08571); type: binding
T1 sequence (P08571 20-175 limits assumed): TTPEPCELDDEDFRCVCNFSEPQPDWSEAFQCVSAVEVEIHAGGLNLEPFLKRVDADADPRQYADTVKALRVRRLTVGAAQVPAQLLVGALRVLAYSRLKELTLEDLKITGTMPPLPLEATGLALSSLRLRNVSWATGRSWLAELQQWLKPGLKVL

IC50 [nM]	Structure (SMILES)
800	CCCCCCCCCCCCCCO[C@H]1[C@@H](OC)O[C@H](C[N+](C)(C)C2CCCC2)[C@@H](O)[C@@H]1OCCCCCCCCCCCCCC [compound 1, methyl 6-deoxy-6-N-dimethyl-N-cyclopentylamonium-2,3-di-O-tetradecyl-α-D-glucopyranoside]
2000	CCCCCCCCCCCCCCO[C@H]1[C@@H](OC)O[C@H](CN)[C@@H](O)[C@@H]1OCCCCCCCCCCCCCC [compound 2, methyl 6-deoxy-6-amino-2,3-di-O-tetradecyl-α-D-glucopyranoside]
400	CCCCCCCCCCCCCCOc1ccc(C[N+](C)(C)C2CCCC2)cc1OCCCCCCCCCCCCCC [compound 3, N-(3,4-bis-tetradecyloxy-benzyl)-N-cyclopentyl-N,N-dimethylammonium]

From publication PMC2802518 (Biochemistry, 2009)
